Data published in patent publication US11116817B2, “Antimicrobial agents and compositions comprising the same” (THE CURATORS OF THE UNIVERSITY OF MISSOURI, priority 2017, dated 2021).
Positions of bridges follow the written chain, without caps; N, C: chain ends. Non-standard residues stand in square brackets, D forms with d. No end group written: not given here. Abu = CC[C@H](N)C(=O)O

Experiments:
mouse red blood cells = format: cell-based
Description: The Hemolytic Assay includes the following procedures. Briefly, mouse red blood cells (RBCs, Innovative research, Novi, Mich.) were washed three times with phosphate-buffered saline (PBS, pH 7.4), centrifuged at 1000×g for 10 minutes, and re-suspended in PBS to 10% (v/v). The RBCs were treated with CAMPs (SEQ ID NOs: 1, 2, 3, and 4) at various concentrations ranging from 4 to 512 μg/ml (2-fold serial dilutions) at 37° C. for 1 hours. PBS and 0.2% Triton X-100 were used as negative and positive controls, respectively. The supernatant was transferred to a 96-well flat-bottomed polystyrene plate (Thermo Fisher Scientific), and the amount of hemoglobin released into the supernatant was determined by measuring the absorbance with a spectrophotometer at 540 nm. Hemolytic activity was expressed as the percentage of hemolysis and calculated using the following equation: hemolysis (%)=(As−A0)/(A100−A0)×100, where As is the absorbance of the sample, A100 is the absorbance of completely lysed RBCs in 0.2% Triton X-100, and A0 is the absorbance in the complete absence of hemolysis (PBS treatment). The assay was performed in triplicate. Therapeutic index (T.I.) was calculated according to a previously published formula: T.I.=MHC/MICGM. MHC was the minimum hemolytic concentration that caused 5% hemolysis of mouse RBCs. The MICGM was the minimum inhibitory concentration of the peptide concentrations against bacterial growth after the geometric mean was calculated. MICG− was the MICGM for Gram-negative bacteria; MICG+ was the MICGM for Gram-positive bacteria.

CHO-K1 cells = test: Cell cytotoxicity assay (MTT); format: cell-based, hamster
Description: The Cell Cytotoxicity Assay includes the following procedures. Mouse immature dendritic cell line, JAWSII (ATCC CRL-11904™), was cultured in Alpha minimum essential medium with ribonucleosides, deoxyribonucleosides, 4 mM L-glutamine, 1 mM sodium pyruvate, and 5 ng/ml murine Granulocyte macrophage colony-stimulating factor (GM-CSF) then supplemented with 20% FBS, 100 U/ml penicillin, and 100 μg/ml streptomycin at 37° C. in humidified air with 5% CO2. CCR-2 transfected CHO-K1 cells were cultured in RPMI-1640 supplemented with 10% FBS, 2 mM L-glutamine, 100 units/ml penicillin and streptomycin, and 500 μg/ml G418 at 37° C. in humidified air with 5% CO2. The cytotoxicity of CAMPs (SEQ ID NOs: 1, 2, 3, and 4) to JASWII and CHO-K1 cells was determined using MTT (3-(4,5-dimethylthiazol-2-yl)-2,5-diphenyltetrazolium bromide, Thermo Fisher Scientific) cell proliferation assay. Cells (5×10^3 cells/well) in 96-well microtiter plates were treated with peptides at 64, 128, 256, and 512 μg/ml for 4, 12, 24, and 48 hours at 37° C. After treatment, 20 μl of 12 mM MTT solution was added to each well and the plate was incubated for 4 hours. The medium in each well was replaced with 100 μl of dimethyl sulfoxide (DMSO, Sigma-Aldrich) to dissolve MTT crystals. The plates were read using a spectrophotometer at 540 nm. The viability of treated cells was expressed as the percentage of viability relative to the untreated control. The experiment was performed in triplicate.
Chicken macrophage cell lines MQ-NCSU and HD11 were maintained in RPMI-1640 media supplemented with 10% fetal bovine serum (FBS), 2% chicken serum, 100 U/ml penicillin and 100 μg/ml streptomycin (Sigma-Aldrich) at 37° C. in humidified air with 5% CO2. CHO-K1 cells were cultured in the same media without 2% chicken serum. For CCR2-transfected CHO-K1 cells, medium was supplemented with 500 μg/ml G418 was added (Sigma-Aldrich). Murine immature dendritic cell line JAWSII (ATCC CRL-11904™) was cultured in Alpha minimum essential medium containing 4 mM L-glutamine, 1 mM sodium pyruvate, 5 ng/ml murine Granulocyte macrophage colony-stimulating factor (GM-CSF), 20% FBS, 100 U/ml penicillin and 100 μg/ml streptomycin at 37° C. in humidified air with 5% CO2. The cell cytotoxicity was determined using the MTT (3-(4,5-dimethylthiazol-2-yl)-2,5-diphenyltetrazolium bromide cell proliferation assay according to the manufacturer's instruction (Thermo Fisher Scientific). Briefly, cells (5×10^3 cells/well) were seeded in 96-well tissue culture plates, incubated overnight and treated with the analogues at concentrations of 4, 16, 64 and 256 μg/ml for 4, 12, 24 and 48 hours at 37° C. After treatment, […] 12 mM MTT solution was added to each well. The plate was incubated for 4 hours and read at 540 nm. Viability was expressed as percentage of viable cells relative to the untreated control. The experiments were performed in triplicate.

[1] = system: P. aeruginosa (ATCC 27853); format: cell-based; details: low salt condition (5 mM NaCl)
Description: (§1) The minimum inhibitory concentrations (MIC) of AvBDs (SEQ ID NOs: 5, 6, 7, 8, 9, 10, 11, 12, and 13) were determined under low salt and standard conditions according to the guidelines of the Clinical and Laboratory Standards Institute (CLSI). […] An equal volume […] of bacterial suspension was added to each well of the plate. The final bacterial concentration in the wells was 5×10^5 CFU/ml. […] To complement MIC-1s assays, the minimum bactericidal concentrations (MBC) were evaluated by sub-culturing the contents of the first two clear wells obtained in the MIC-1s assay onto LB agar plates. All assays were conducted in triplicate. The lowest peptide concentration inhibiting about, at least, or more than 99% of bacterial growth was defined as MBC-1s. The analogues were regarded as bactericidal when the MBC was determined to be no more than four times the MIC.

S. aureus (ATCC 29213) = format: cell-based; details: standard conditions, CLSI guidelines
Description: as §1

JAWSII cells = test: Chemotaxis assay (48-well microchemotaxis chamber); format: cell-based, mouse; details: for chemotactic index (C.I.): peptide 64 μg/ml
Description: (§2) Migration of JAWSII and CCR-2 transfected CHO-K1 cells in response to CAMPs (SEQ ID NOs: 1, 2, 3, and 4) was determined using a 48-well microchemotaxis chamber technique as previously described. Chemotaxis buffer (Minimum Essential Medium containing 0.1% BSA, 100 U/ml penicillin, and 100 μg/ml streptomycin) and bacterial peptide N-Formyl-methionyl-leucyl-phenylalanine (fMLF, Sigma-Aldrich) were included as negative and positive controls, respectively. The results were presented as chemotactic index (C.I.)=number of migrated cells induced by CAMPs (SEQ ID NOs: 1, 2, 3, and 4)/number of migrated cells induced by chemotactic buffer. The assay was repeated five times.
as §2, with “CCR2-CHO-K1” for “CCR-2 transfected CHO-K1”, “the analogues” for “CAMPs (SEQ ID NOs: 1, 2, 3, and 4)”, “For JAWSII cells, chemotaxis” for “Chemotaxis”, “(C.I.). C.I.=number” for “(C.I.)=number”, “the analogues/number” for “CAMPs (SEQ ID NOs: 1, 2, 3, and 4)/number”

[2] = system: E. coli, S. Typhimurium, P. aeruginosa and S. aureus; test: Antimicrobial activity assay (colony counting), Example Two, statements over all four bacteria; format: cell-based; details: for impact of NaCl on the killing activity: NaCl 5 to 150 mM; for killing activity compared with parent peptide: 2 to 128 μg/ml, 37° C., 2 hours
Description: (§3) Escherichia coli (ATCC 25922), Pseudomonas aeruginosa (ATCC 27853), Salmonella enteric serovar Typhimurium (ATCC 14028) and Staphylococcus aureus (ATCC 29213) were used to assess the antimicrobial activity of AvBD analogues (SEQ ID NOs: 5, 6, 7, 8, 9, 10, 11, 12, and 13). All bacterial strains were grown on Luria-Bertani (LB) agar plates or Trypticase Soy Agar with 5% Sheep Blood (TSA, Thermo Fisher Scientific) plates at 37° C. Antimicrobial activity was determined by a colony counting assay. In brief, bacteria were suspended in 100-fold diluted Mueller Hinton broth with 5 mM NaCl (minimal growth medium) to obtain a final bacterial concentration of 2×10^5 CFU/ml. Twenty-five microliters of bacterial suspension and 25 μl of AvBD analogue (SEQ ID NOs: 5, 6, 7, 8, 9, 10, 11, 12, and 13) solution were mixed in the wells of a 96-well polypropylene microtiter plate (Nunc™, Thermo Fisher Scientific). The final peptide concentrations were 2, 4, 8, 16, 32, 64 and 128 μg/ml. The minimal growth medium without AvBD peptide (SEQ ID NO: 5, 6, 7, 8, 9, 10, 11, 12, and 13) was included as a negative control. The bacterial-peptide mixtures were incubated at 37° C. for 2 hours, 10-fold serially diluted and plated on LB agar plates. The numbers of bacterial colonies were enumerated after 16 hours of incubation at 37° C. Antimicrobial activity was expressed as percent of killing using the following formula: (CPUcontrol−CFUtreated)/CFUcontrol×100%. To assess the resistance of AvBD analogues (SEQ ID NOs: 5, 6, 7, 8, 9, 10, 11, 12, and 13) to sodium chloride (NaCl), antimicrobial assays were carried out in the presence of 5 mM, 50 mM, 100 mM or 150 mM NaCl. All assays were performed in triplicate.

[3] = system: Salmonella enteric serovar Typhimurium (ATCC 14028); test: Antimicrobial activity assay (colony counting), Example Two; format: cell-based, S. Typhimurium; details: 2 to 128 μg/ml, 37° C., 2 hours
Description: as §3, with “The numbers of bacterial colonies were enumerated after 16 hours of incubation at 37° C.” left out, “To assess the resistance of AvBD analogues (SEQ ID NOs: 5, 6, 7, 8, 9, 10, 11, 12, and 13) to sodium chloride (NaCl), antimicrobial assays were carried out in the presence of 5 mM, 50 mM, 100 mM or 150 mM NaCl. All assays were performed in triplicate.” left out

[4] = system: CCR-2 transfected CHO-K1 cells; test: Chemotaxis assay (48-well microchemotaxis chamber); format: cell-based, hamster
Description: as §2
as §2, with “CCR2-CHO-K1” for “CCR-2 transfected CHO-K1”, “the analogues” for “CAMPs (SEQ ID NOs: 1, 2, 3, and 4)”, “For JAWSII cells, chemotaxis” for “Chemotaxis”, “(C.I.). C.I.=number” for “(C.I.)=number”, “the analogues/number” for “CAMPs (SEQ ID NOs: 1, 2, 3, and 4)/number”

[5] = 64, 128, 256, and 512 μg/ml for 4 to 48 hours

| Substance | T.I. of G+ (therapeutic index, MHC/MICGM) (mouse red blood cells) | T.I. of G− (therapeutic index, MHC/MICGM) (mouse red blood cells) | MBS-Is [1] | impact of NaCl on the killing activity [2] | chemotactic activity [4] | further results |
| --- | --- | --- | --- | --- | --- | --- |
| Ac-LRRLKPLIRPWLRPLRRWWW-NH2 [CAMP-A] | 6.54±2.01 | 8.72±2.41 |  |  |  | effect on cell viability (CHO-K1 cells; concentration at about 128 μg/ml or greater): somewhat decreased |
| Ac-PIHRRIPPRWPRLKRRW-NH2 [CAMP-t2, PIHRRIPPRWPRLKRRW] | >13.45 ± 4.48 | >5.45 ± 2.54 |  |  |  | effect on cell viability (CHO-K1 cells; [5]): did not significantly affect cell viability |
| Ac-RKFLRRRGEVAHFSQKSLGLYCWWW-NH2 [CAMP-t1] | >3.27 ± 2.41 | >4.36 ± 1.21 |  |  |  | effect on cell viability (CHO-K1 cells; [5]): did not significantly affect cell viability |
| Ac-RRRWRKRRWWW-NH2 [CAMP-B, RRRWRKRRWWW] | > 12.36±4.18 | > 10.90±4.0 |  |  |  | effect on cell viability (CHO-K1 cells; [5]): did not significantly affect cell viability |
| GPDSCNHDRGLCRVGNCNPGEYLAKYCFEPVILCCKPLSPTPTKT (disulfide 5-34, 12-27, 17-35) [AvBD-12, reference compound] |  |  | >256 µg/mL |  |  | MIC (S. aureus (ATCC 29213)): >256^ μg/ml; chemotactic index (C.I.) (JAWSII cells): 6.62 |
| GPDS[Abu]NHDRGLCRVGNCNPGEYLAKYCFEPVIL[Abu]CKPLSPTPTKT (disulfide 12-27, 17-35) [AvBD-12A4] |  |  | >256 µg/mL | some impact on killing activity due to salt |  | killing activity compared with AvBD-12 [3]: somewhat reduced |
| GPDS[Abu]NHDRGL[Abu]RVGNCNPGEYLAKY[Abu]FEPVIL[Abu]CKPLSPTPTKT (disulfide 17-35) [AvBD-12A5] |  |  | >256 µg/mL | some impact on killing activity due to salt | did not appear to exhibit chemotactic activity | chemotactic activity (JAWSII cells): did not appear to exhibit chemotactic activity |
| GPDS[Abu]NHDRGL[Abu]RVGN[Abu]NPGEYLAKY[Abu]FEPVIL[Abu][Abu]KPLSPTPTKT [AvBD-12A6] |  |  | >256 µg/mL | some impact on killing activity due to salt | did not appear to exhibit chemotactic activity | chemotactic activity (JAWSII cells): did not appear to exhibit chemotactic activity |
| GPHSANHVRGLARVGNANPGLYLAKYAFIPVILAAKPLSPTPTKT [AvBD-12A1] |  |  | 256 µg/mL | some impact from NaCl | mild or little chemotactic activity | killing activity compared with parent peptide [2]: more effective than the parent peptide AvBD-12 |
| GPRSANHKRGLARVGNANPGKYLAKYSFRPVILSSKPLSPTPTKT [AvBD-12A3] |  |  |  |  |  | effect on cell viability (CHO-K1 cells; 4, 16, 64, 256 μg/ml for 4, 12, 24, and 48 hour): did not appear to have any effect on cell viability |
| GPRSSNHKRGLSRVGNSNPGKYLAKYAFRPVILAAKPLSPTPTKT [AvBD-12A2] |  |  | 32 µg/mL | less adverse impact | mild or little chemotactic activity | killing activity compared with parent peptide [2]: more effective than the parent peptide AvBD-12; chemotactic index (C.I.) (JAWSII cells): 2.37 |
